Data taken from paper PMC3702004, “Comparison of Intake and Systemic Relative Effect Potencies of Dioxin-like Compounds in Female Mice after a Single Oral Dose” (Environmental Health Perspectives, 2013).
Where two headings read alike, the source gives them in different places.

Key:
Cyp1b1 mRNA in PBLs = assay: Cyp1b1 gene expression in peripheral blood lymphocytes; assay type: in vivo, female C57BL/6 mice; conditions: for BMR20TCDD PBLs Cyp1b1 mRNA: 3 days after single oral dose; for REP PBLs Cyp1b1 mRNA: relative to TCDD; for Effect on Cyp1b1 mRNA in PBLs: single oral dose, day 3
Description: (§1) Animals. Eight-week-old female C57BL/6 mice (Harlan laboratories, Venray, the Netherlands) were randomly assigned to treatment groups (six animals per group) and allowed to acclimate for 1.5 weeks. The animals were housed in groups in standard cages and conditions (23 ± 2°C, 50–60% relative humidity, 12-hr dark/light cycle) with free access to food and water. Mice received a single dose of test compound by oral gavage at a dosing volume of 10 mL/kg body weight (BW). Mice treated with corn oil vehicle (10 mL/kg BW) served as controls. For each congener, five different doses were administered, ranging from 0.5–100 μg/kg BW (TCDD) to 5,000–500,000 µg/kg BW (PCB-153). Detailed information on doses is provided in Supplemental Material, Table S1 (http://dx.doi.org/10.1289/ehp.1206336). On day 3 after dosing, animals were euthanized by CO2/O2 asphyxiation, and blood was immediately collected from the abdominal aorta. The liver, thymus, spleen, and adipose tissue were removed, weighed (liver, thymus, and spleen), snap frozen, and stored at –80°C. All animal treatments were performed with permission of the Animal Ethical Committee (DEC Utrecht) and performed according to the [Law on Animal Experiments (1977)]. Animals were treated humanely and with regard for alleviation of suffering.
(§2) Plasma and PBL isolation. Blood from two mice was pooled (total volume of approximately 1.4 mL); plasma and PBLs were then isolated using Ficoll Paque gradient (GE Healthcare Europe, Diegem, Belgium). Plasma samples were stored at –80°C until compound analysis. Isolated lymphocytes were lysed with RLT buffer (QIAGEN, Venlo, the Netherlands) as described in the QIAGEN RNAeasy kit protocol and stored at –80°C until use.
RNA isolation and quantitative real-time polymerase chain reaction (PCR). Total RNA was isolated from liver and PBLs using a QIAGEN RNeasy kit (QIAGEN). Purity and concentration of the isolated RNA was determined by measuring the absorbance ratio at 260/280 nm and 230/260 nm with a Nanodrop 2000 spectrophotometer (Thermo Scientific, Asheville, NC, USA). RNA was reverse transcribed to complementary DNA (cDNA) using the iScript cDNA synthesis Kit (Bio-Rad, Veenendaal, the Netherlands). Quantitative real-time PCR analyses were performed using the iQ Real-Time PCR Detection System with SYBR green (Bio-Rad). Amplification reactions were set up with […] containing 12.5 μL iQ SYBR Green Supermix (Bio-rad), 0.5 μL distilled H2O, 1 μL (10 μM) forward primer, 1 μL (10 μM) reverse primer, and 10 μL first strand cDNA (10X diluted). Primer sequences were as follows: Cyp1a1: forward-5´-GGTTAACCATGACCGGGAACT-3´ and reverse-5´-TGCCCAAACCAAAGAGAGTGA-3´ ([Schulz et al. 2012]); Cyp1a2: forward-5´-ACATTCCCAAGGAGCGCTGTATCT-3´ and reverse-5´-GTCGATGGCCGAGTTGTTATTGGT-3´ ([Flaveny et al. 2010]); Cyp1b1: forward-5´-GTGGCTGCTCATCCTCTTTACC-3´ and reverse-5´-CCCACAACCTGGTCCAACTC-3´ ([Berge et al. 2004]); β-actin: forward-5´-ATGCTCCCCGGGCTGTAT-3´ and reverse-5´-CATAGGAGTCCTTCTGACCCATTC-3´ ([Schulz et al. 2012]). All primers were run through the National Center for Biotechnology Information Primer-BLAST database (http://www.ncbi.nlm.nih.gov/tools/primer-blast/) to confirm specificity and validate for optimal annealing temperature (60°C for all primers) and efficiency. The efficiency of all primer pairs was 98–102% (tested at 60°C). The following program was used for denaturation and amplification of cDNA: 3 min at 95°C, followed by 40 cycles of 15 sec at 95°C and 45 sec at 60°C. Gene expression for each sample was expressed as threshold cycle (Ct), normalized to the reference gene β-actin (ΔCt). We calculated fold induction relative to the control group.
Data analysis. We obtained concentration–response curves using a sigmoidal dose–response nonlinear regression curve fit with variable slope (GraphPad Prism 6.01; GraphPad Software Inc., San Diego, CA, USA): […]

[1] = Compound analysis: liver, adipose and plasma concentrations 3 days after a single oral dose; assay type: in vivo, female C57BL/6 mice; conditions: for liver:adipose ratio (hepatic sequestration criterion 0.3) / concentration at 3 days / Adipose % dose / g tissue / Adipose concentration / Liver % dose / g tissue / Liver concentration / Plasma % dose / g tissue / Plasma concentration: 3 days after single oral dose; for liver:adipose ratio (hepatic sequestration criterion 0.3): Table 1 doses; for Liver:adipose ratio: based on ng/g tissue, day 3; for concentration at 3 days: female, C57BL/6, mouse, in vivo, po
Description: as §1
Compound analysis. Adipose and liver tissues samples were homogenized in Na2SO4, followed by extraction and clean-up in one step, and then eluted with 200 mL 1:1 hexane:dichloromethane on an open column packed with 40% wt/wt H2SO4-impregnated silica and KOH-silica. Blood plasma samples were extracted on an open column using Chem-Elut (Agilent Technologies, Santa Clara, CA, USA) and then NaCl eluted with 75 mL 3:2 hexane:2-propanol. Clean-up was performed using a miniaturized silica column (as described above), and samples were eluted using 30 mL hexane. Because the samples typically contained high levels of the analytes, only a small fraction was evaporated and analyzed. Prior to evaporation, we spiked a fraction of the samples with ^13C-labeled standards. We checked potential loss of analytes during extraction and clean-up by reextracting the samples using the identical protocol used for the samples. […] Tetradecane was added prior to evaporation. Sample analysis followed the U.S. Environmental Protection Agency Method 1613 ([U.S. Environmental Protection Agency 1994]) using single ion monitoring mode on an Agilent 6809N gas chromatograph (Agilent Technologies) coupled with a Micromass Ultima Autospec Ultra high-resolution mass spectrometer (HRMS; Waters Corp., Milford, MA, USA). Compounds were separated on a 60 m × 0.25 mm DB5-MS column ([…]; J&W Scientific, Folsom, CA, USA). The HRMS was operated with electron impact ionization with electron energy of 35 eV and an ion source temperature of 250°C. To reduce the number of analyses, samples were pooled before clean-up. […] This method was used because full congener–specific separation could be achieved on the high-resolution GC–HRMS. For lipid determination, samples were evaporated to dryness after the extraction step, and the amount of lipids was determined gravimetrically. Concentrations were calculated based on lipid weight and wet weight. The analysis of samples for the PCB-118 5,000 μg/kg BW dose failed during the procedure; thus analysis for this group could not be completed.
as §2

[2] = dose metric Adm dose (µg/kg BW)
[3] = dose metric Syst plasma (ng/g lipid)
[4] = 0.5 µg/kg bw, oral dose 0.5 µg/kg bw, read-out: Adipose concentration
[5] = 0.5 µg/kg bw, oral dose 0.5 µg/kg bw, read-out: Liver concentration
[6] = 2.5 µg/kg bw, oral dose 2.5 µg/kg bw, read-out: Adipose concentration
[7] = 2.5 µg/kg bw, oral dose 2.5 µg/kg bw, read-out: Liver concentration
[8] = 10 µg/kg bw, oral dose 10 µg/kg bw, read-out: Adipose concentration
[9] = 10 µg/kg bw, oral dose 10 µg/kg bw, read-out: Liver concentration
[10] = 10 µg/kg bw, oral dose 10 µg/kg bw, read-out: Plasma concentration
[11] = 25 µg/kg bw, oral dose 25 µg/kg bw, read-out: Plasma concentration
[12] = 100 µg/kg bw, oral dose 100 µg/kg bw, read-out: Plasma concentration

Clc1cc2c(cc1Cl)Oc1c(cc(Cl)c(Cl)c1Cl)O2 [PeCDD, 1,2,3,7,8-pentachlorodibenzodioxin]
BMR20TCDD PBLs Cyp1b1 mRNA (Cyp1b1 mRNA in PBLs; dose metric Adm dose): 51.8 µg/kg BW | BMR20TCDD PBLs Cyp1b1 mRNA (Cyp1b1 mRNA in PBLs; dose metric Syst plasma): 63.8 ng/g lipid | REP PBLs Cyp1b1 mRNA (Cyp1b1 mRNA in PBLs; [2]): 0.4 | REP PBLs Cyp1b1 mRNA (Cyp1b1 mRNA in PBLs; [3]): 0.8 | Effect on Cyp1b1 mRNA in PBLs (Cyp1b1 mRNA in PBLs): dose-dependently induced | liver:adipose ratio (hepatic sequestration criterion 0.3) [1]: > 0.3 | Liver:adipose ratio ([1]; dose 0.5 μg/kg BW): 4.4±0.9 | Liver:adipose ratio ([1]; dose 2.5 μg/kg BW): 7.0±1.1 | Liver:adipose ratio ([1]; dose 10 μg/kg BW): 6.7±1.4 | concentration at 3 days [1, 4]: 0.9 ± 0.2 ng/g | concentration at 3 days [1, 5]: 4 ± 0.7 ng/g | concentration at 3 days [1, 6]: 3.8 ± 0.7 ng/g | concentration at 3 days [1, 7]: 27 ± 6 ng/g | concentration at 3 days [1, 8]: 16 ± 5 ng/g | concentration at 3 days [1, 9]: 103 ± 23 ng/g | concentration at 3 days [1, 10]: 0.032 ng/g | concentration at 3 days [1, 11]: 0.052 ng/g | concentration at 3 days [1, 12]: 0.298 ng/g | Adipose % dose / g tissue ([1]; oral dose 0.5 µg/kg bw): 9.3 % dose / g tissue | Adipose concentration ([1]; oral dose 0.5 µg/kg bw): 1.1 ± 0.2 ng/g lipid | Liver % dose / g tissue ([1]; oral dose 0.5 µg/kg bw): 40 % dose / g tissue | Liver concentration ([1]; oral dose 0.5 µg/kg bw): 85 ± 14 ng/g lipid | Plasma % dose / g tissue ([1]; oral dose 0.5 µg/kg bw): 0.037 % dose / g tissue | Adipose % dose / g tissue ([1]; oral dose 2.5 µg/kg bw): 7.7 % dose / g tissue | Adipose concentration ([1]; oral dose 2.5 µg/kg bw): 4.3 ± 0.8 ng/g lipid | Liver % dose / g tissue ([1]; oral dose 2.5 µg/kg bw): 54 % dose / g tissue | Liver concentration ([1]; oral dose 2.5 µg/kg bw): 446 ± 96 ng/g lipid | Plasma % dose / g tissue ([1]; oral dose 2.5 µg/kg bw): 0.024 % dose / g tissue | Adipose % dose / g tissue ([1]; oral dose 10 µg/kg bw): 8.0 % dose / g tissue | Adipose concentration ([1]; oral dose 10 µg/kg bw): 19 ± 6 ng/g lipid | Liver % dose / g tissue ([1]; oral dose 10 µg/kg bw): 51 % dose / g tissue | Liver concentration ([1]; oral dose 10 µg/kg bw): 1669 ± 378 ng/g lipid | Plasma % dose / g tissue ([1]; oral dose 10 µg/kg bw): 0.016 % dose / g tissue | Plasma concentration ([1]; oral dose 10 µg/kg bw): 19 ± 7 ng/g lipid | Plasma % dose / g tissue ([1]; oral dose 25 µg/kg bw): 0.010 % dose / g tissue | Plasma concentration ([1]; oral dose 25 µg/kg bw): 30 ± 2 ng/g lipid | Plasma % dose / g tissue ([1]; oral dose 100 µg/kg bw): 0.015 % dose / g tissue | Plasma concentration ([1]; oral dose 100 µg/kg bw): 157 ± 21 ng/g lipid

Clc1cc2c(cc1Cl)Oc1cc(Cl)c(Cl)cc1O2 [TCDD, 2,3,7,8-tetrachlorodibenzodioxin, reference compound]
BMR20TCDD PBLs Cyp1b1 mRNA (Cyp1b1 mRNA in PBLs; dose metric Adm dose): 20.9 µg/kg BW | BMR20TCDD PBLs Cyp1b1 mRNA (Cyp1b1 mRNA in PBLs; dose metric Syst plasma): 53.5 ng/g lipid | REP PBLs Cyp1b1 mRNA (Cyp1b1 mRNA in PBLs; [2]): 1 | REP PBLs Cyp1b1 mRNA (Cyp1b1 mRNA in PBLs; [3]): 1 | Effect on Cyp1b1 mRNA in PBLs (Cyp1b1 mRNA in PBLs): dose-dependently induced | liver:adipose ratio (hepatic sequestration criterion 0.3) [1]: > 0.3 | Liver:adipose ratio ([1]; dose 0.5 μg/kg BW): 1.8±0.2 | Liver:adipose ratio ([1]; dose 2.5 μg/kg BW): 2.9±0.5 | Liver:adipose ratio ([1]; dose 10 μg/kg BW): 4.2±0.7 | concentration at 3 days [1, 4]: 1.8 ± 0.4 ng/g | concentration at 3 days [1, 5]: 3.3 ± 0.6 ng/g | concentration at 3 days [1, 6]: 6.9 ± 1.5 ng/g | concentration at 3 days [1, 7]: 20 ± 6 ng/g | concentration at 3 days [1, 8]: 21 ± 3 ng/g | concentration at 3 days [1, 9]: 85 ± 13 ng/g | concentration at 3 days [1, 10]: 0.053 ng/g | concentration at 3 days [1, 11]: 0.108 ng/g | concentration at 3 days [1, 12]: 0.432 ng/g | Adipose % dose / g tissue ([1]; oral dose 0.5 µg/kg bw): 18 % dose / g tissue | Adipose concentration ([1]; oral dose 0.5 µg/kg bw): 2.1 ± 0.5 ng/g lipid | Liver % dose / g tissue ([1]; oral dose 0.5 µg/kg bw): 33 % dose / g tissue | Liver concentration ([1]; oral dose 0.5 µg/kg bw): 62 ± 12 ng/g lipid | Plasma % dose / g tissue ([1]; oral dose 0.5 µg/kg bw): 0.040 % dose / g tissue | Adipose % dose / g tissue ([1]; oral dose 2.5 µg/kg bw): 14 % dose / g tissue | Adipose concentration ([1]; oral dose 2.5 µg/kg bw): 7.6 ± 1.7 ng/g lipid | Liver % dose / g tissue ([1]; oral dose 2.5 µg/kg bw): 40 % dose / g tissue | Liver concentration ([1]; oral dose 2.5 µg/kg bw): 277 ± 83 ng/g lipid | Plasma % dose / g tissue ([1]; oral dose 2.5 µg/kg bw): 0.027 % dose / g tissue | Adipose % dose / g tissue ([1]; oral dose 10 µg/kg bw): 10 % dose / g tissue | Adipose concentration ([1]; oral dose 10 µg/kg bw): 24 ± 4 ng/g lipid | Liver % dose / g tissue ([1]; oral dose 10 µg/kg bw): 43 % dose / g tissue | Liver concentration ([1]; oral dose 10 µg/kg bw): 1152 ± 176 ng/g lipid | Plasma % dose / g tissue ([1]; oral dose 10 µg/kg bw): 0.027 % dose / g tissue | Plasma concentration ([1]; oral dose 10 µg/kg bw): 35 ± 6 ng/g lipid | Plasma % dose / g tissue ([1]; oral dose 25 µg/kg bw): 0.022 % dose / g tissue | Plasma concentration ([1]; oral dose 25 µg/kg bw): 60 ± 3 ng/g lipid | Plasma % dose / g tissue ([1]; oral dose 100 µg/kg bw): 0.022 % dose / g tissue | Plasma concentration ([1]; oral dose 100 µg/kg bw): 240 ± 30 ng/g lipid
